Data taken from BindingDB's records for doi:10.1016/j.bmcl.2003.08.015 (The University of Birmingham, 2003).

Biological target: T1, 3-oxoacyl-[acyl-carrier-protein] synthase 3 (Mycobacterium tuberculosis (strain ATCC 25618 / H37Rv), UniProt P9WNG3)
T1 sequence (P9WNG3 whole entry): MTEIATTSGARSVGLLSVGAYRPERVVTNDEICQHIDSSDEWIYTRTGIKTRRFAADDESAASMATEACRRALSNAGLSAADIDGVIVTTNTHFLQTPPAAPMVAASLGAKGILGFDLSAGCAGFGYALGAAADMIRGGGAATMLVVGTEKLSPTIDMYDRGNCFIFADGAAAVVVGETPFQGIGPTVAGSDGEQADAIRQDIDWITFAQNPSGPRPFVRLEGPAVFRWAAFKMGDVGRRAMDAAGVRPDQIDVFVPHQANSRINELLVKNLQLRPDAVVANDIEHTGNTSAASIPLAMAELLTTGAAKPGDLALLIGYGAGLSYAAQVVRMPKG
Test: ChEBML_37595
Excerpt: In vitro inhibitory activity against the recombinant Mycobacterium tuberculosis Beta-ketoacyl-ACP synthase III mtFabH condensing enzyme.

**Q.** `CC1C(=O)SC(C)(Cc2cccc(Oc3ccccc3)c2)C1=O` (configuration not stated) [4-Hydroxy-3,5-dimethyl-5-(3-phenoxy-benzyl)-5H-thiophen-2-one] was tested. Which IC50 did it give?
**A.** The IC50 was 52 µM.

**Q.** How did the IC50 turn out when `Cc1ccc(-c2ccc(CC3(C)SC(=O)C(C)C3=O)cc2)cc1` (configuration not stated) [4-Hydroxy-3,5-dimethyl-5-(4'-methyl-biphenyl-4-ylmethyl)-5H-thiophen-2-one] was run?
**A.** The IC50 was 52 µM.
